pIC50: −log10 of the molar value.
Test system: 743489-274-T-PDC complex spheroid viability
Experiment: Anticancer human tumor 743489-274-T-PDC patient-derived renal cell carcinoma cell line growth inhibition
Settings: for pIC50: curve of first compound; for viability, T/C: stronger effect = lower value
Summary of the method: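 Drug combinations with the LSD1 inhibitor iadademstat tested on tumor cells co-cultured as spheroids with endothelial cells and mesenchymal stem cells. Concentrations descended in half-log increments from clinical Cmax or 10 microM.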

[1] = second compound 0.1 µM, first compound 0.0316 µM
[2] = second compound 0.1 µM, first compound 0.1 µM
[3] = second compound 0.1 µM, first compound 0.316 µM
[4] = second compound 0.1 µM, first compound 1 µM
[5] = second compound 0.1 µM, first compound 3.16 µM
[6] = second compound 0.1 µM, first compound 10 µM
[7] = second compound 0.316 µM, first compound 0.0316 µM
[8] = second compound 0.316 µM, first compound 0.1 µM
[9] = second compound 0.316 µM, first compound 0.316 µM
[10] = second compound 0.316 µM, first compound 1 µM
[11] = second compound 0.316 µM, first compound 3.16 µM
[12] = second compound 0.316 µM, first compound 10 µM
[13] = second compound 1 µM, first compound 0.0316 µM
[14] = second compound 1 µM, first compound 0.1 µM
[15] = second compound 1 µM, first compound 0.316 µM
[16] = second compound 1 µM, first compound 1 µM
[17] = second compound 1 µM, first compound 3.16 µM
[18] = second compound 1 µM, first compound 10 µM
[19] = second compound 3.16 µM, first compound 0.0316 µM
[20] = second compound 3.16 µM, first compound 0.1 µM
[21] = second compound 3.16 µM, first compound 0.316 µM
[22] = second compound 3.16 µM, first compound 1 µM
[23] = second compound 3.16 µM, first compound 3.16 µM
[24] = second compound 3.16 µM, first compound 10 µM
[25] = second compound 10 µM, first compound 0.0316 µM
[26] = second compound 10 µM, first compound 0.1 µM
[27] = second compound 10 µM, first compound 0.316 µM
[28] = second compound 10 µM, first compound 1 µM
[29] = second compound 10 µM, first compound 3.16 µM
[30] = second compound 10 µM, first compound 10 µM
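Also: spheroids exposed to compounds for 7 days before readout.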
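For viability, T/C in this document: 100% = DMSO vehicle control wells.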

For `CC(C)c1c(-c2ccccc2)nc2c(C#N)c[nH]n2c1=O` + NC1CCC(NC2CC2c2ccccc2)CC1, the pIC50 (second compound 0.1 µM) was < 5.00, the pIC50 (second compound 0.316 µM) was < 5.00 and the pIC50 (second compound 1 µM) was < 5.00. The pIC50 (second compound 3.16 µM) was < 5.00, the pIC50 (second compound 10 µM) was < 5.00 and the viability, T/C [1] was 97.2%. The viability, T/C [2] was 115%, the viability, T/C [3] was 104% and the viability, T/C [4] was 127%. It also gave a viability, T/C [5] of 99.9%, a viability, T/C [6] of 104% and a viability, T/C [7] of 106%. For the same compound, the viability, T/C [8] was 99.3%, the viability, T/C [9] was 126% and the viability, T/C [10] was 108%. For the same compound, the viability, T/C [11] was 108%, the viability, T/C [12] was 104% and the viability, T/C [13] was 119%. The viability, T/C [14] was 120%, the viability, T/C [15] was 100% and the viability, T/C [16] was 111%. The viability, T/C [17] was 105%, the viability, T/C [18] was 114% and the viability, T/C [19] was 111%. The viability, T/C [20] was 111%, the viability, T/C [21] was 114% and the viability, T/C [22] was 119%. It also gave a viability, T/C [23] of 98.8%, a viability, T/C [24] of 112% and a viability, T/C [25] of 118%. The viability, T/C [26] was 121%, the viability, T/C [27] was 130% and the viability, T/C [28] was 121%. For the same compound, the viability, T/C [29] was 120% and the viability, T/C [30] was 104%.

In the case of `CC1COCCN1c1cc(-c2ccnn2C)c2ccnc(-c3ccn[nH]3)c2n1` (stereo not given) + NC1CCC(NC2CC2c2ccccc2)CC1, the pIC50 (second compound 0.1 µM) was < 6.00, the pIC50 (second compound 0.316 µM) was < 6.00 and the pIC50 (second compound 1 µM) was < 6.00. The pIC50 (second compound 3.16 µM) was < 6.00, the pIC50 (second compound 10 µM) was < 6.00 and the viability, T/C (second compound 0.1 µM, first compound 0.00316 µM) was 111%. It also gave a viability, T/C (second compound 0.1 µM, first compound 0.01 µM) of 109%, a viability, T/C [1] of 107% and a viability, T/C [2] of 92.6%. It also gave a viability, T/C [3] of 81.6%, a viability, T/C [4] of 64% and a viability, T/C (second compound 0.316 µM, first compound 0.00316 µM) of 126%. It also gave a viability, T/C (second compound 0.316 µM, first compound 0.01 µM) of 110%, a viability, T/C [7] of 114% and a viability, T/C [8] of 87.1%. It also gave a viability, T/C [9] of 83%, a viability, T/C [10] of 62.7% and a viability, T/C (second compound 1 µM, first compound 0.00316 µM) of 109%. The viability, T/C (second compound 1 µM, first compound 0.01 µM) was 128%, the viability, T/C [13] was 118% and the viability, T/C [14] was 98%. The viability, T/C [15] was 90.2%, the viability, T/C [16] was 59.5% and the viability, T/C (second compound 3.16 µM, first compound 0.00316 µM) was 122%. For the same compound, the viability, T/C (second compound 3.16 µM, first compound 0.01 µM) was 138%, the viability, T/C [19] was 110% and the viability, T/C [20] was 101%. It also gave a viability, T/C [21] of 84.5%, a viability, T/C [22] of 76.1% and a viability, T/C (second compound 10 µM, first compound 0.00316 µM) of 131%. For the same compound, the viability, T/C (second compound 10 µM, first compound 0.01 µM) was 117%, the viability, T/C [25] was 129% and the viability, T/C [26] was 105%. It also gave a viability, T/C [27] of 88.9% and a viability, T/C [28] of 71.7%.

Work on `COc1ccc([C@@H](O)c2cc(-c3ncnc4cc(N5CCOCC5)ccc34)c(F)cc2Cl)nn1` + NC1CCC(NC2CC2c2ccccc2)CC1 yielded a pIC50 (second compound 0.1 µM) of 5.55, a pIC50 (second compound 0.316 µM) of 5.64 and a pIC50 (second compound 1 µM) of 5.78. It also gave a pIC50 (second compound 3.16 µM) of 5.73, a pIC50 (second compound 10 µM) of 5.72 and a viability, T/C [1] of 110%. For the same compound, the viability, T/C [2] was 109%, the viability, T/C [3] was 87.2% and the viability, T/C [4] was 70.9%. The viability, T/C [5] was 47.1%, the viability, T/C [6] was 34.9% and the viability, T/C [7] was 125%. The viability, T/C [8] was 121%, the viability, T/C [9] was 99% and the viability, T/C [10] was 65.9%. For the same compound, the viability, T/C [11] was 46.9%, the viability, T/C [12] was 18.6% and the viability, T/C [13] was 125%. It also gave a viability, T/C [14] of 112%, a viability, T/C [15] of 101% and a viability, T/C [16] of 61.6%. For the same compound, the viability, T/C [17] was 34.1%, the viability, T/C [18] was 19.4% and the viability, T/C [19] was 124%. For the same compound, the viability, T/C [20] was 123%, the viability, T/C [21] was 92.9% and the viability, T/C [22] was 62.2%. It also gave a viability, T/C [23] of 41.6%, a viability, T/C [24] of 17% and a viability, T/C [25] of 117%. The viability, T/C [26] was 120%, the viability, T/C [27] was 102% and the viability, T/C [28] was 66.1%. It also gave a viability, T/C [29] of 38.2% and a viability, T/C [30] of 26.4%.

— PubChem BioAssay AID1918942 (Molecular Pharmacology Branch, DTP, NCI, 2023)
